Measurements: PubChem BioAssay AID434951 (Broad Institute, 2010)
pEC50: −log10 of the molar value. The source made the active and inactive calls.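 How the source made its calls: active means a fitted half-maximal concentration EC50 for the rise in nuclear signal no higher than ten times the top dose tested; inconclusive means flat fit with activity between 30% and 70%, or unusable fit; inactive means EC50 beyond ten times the top dose.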

Target: Hypoxia-inducible factor 1-alpha (Homo sapiens) (UniProt Q16665)
Sequence (Q16665 whole entry, looked up): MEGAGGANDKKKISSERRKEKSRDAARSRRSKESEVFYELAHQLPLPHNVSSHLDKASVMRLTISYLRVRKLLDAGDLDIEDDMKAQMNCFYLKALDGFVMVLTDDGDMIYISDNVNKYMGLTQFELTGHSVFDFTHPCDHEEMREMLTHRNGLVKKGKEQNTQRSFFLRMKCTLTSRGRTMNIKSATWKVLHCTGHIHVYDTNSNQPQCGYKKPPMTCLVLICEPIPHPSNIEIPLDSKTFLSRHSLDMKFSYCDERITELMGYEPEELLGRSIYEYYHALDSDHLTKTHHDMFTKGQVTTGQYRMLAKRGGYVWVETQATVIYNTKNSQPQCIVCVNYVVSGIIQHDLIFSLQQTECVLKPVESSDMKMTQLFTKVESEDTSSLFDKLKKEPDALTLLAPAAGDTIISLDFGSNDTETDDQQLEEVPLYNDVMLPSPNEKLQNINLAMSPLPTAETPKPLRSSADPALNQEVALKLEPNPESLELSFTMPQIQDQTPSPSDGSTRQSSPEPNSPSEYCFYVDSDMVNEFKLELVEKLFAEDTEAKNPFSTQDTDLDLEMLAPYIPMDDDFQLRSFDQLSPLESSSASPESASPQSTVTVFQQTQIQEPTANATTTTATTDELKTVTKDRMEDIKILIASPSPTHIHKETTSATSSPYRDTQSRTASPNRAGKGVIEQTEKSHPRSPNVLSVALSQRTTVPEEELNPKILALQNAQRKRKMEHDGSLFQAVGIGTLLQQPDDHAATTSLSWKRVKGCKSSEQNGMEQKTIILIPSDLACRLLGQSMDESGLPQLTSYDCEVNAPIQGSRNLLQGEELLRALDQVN
Assay: activators of HIF1alpha nuclear accumulation, confirmation, imaging, fluorescence, U2OS GFP-HIF1alpha (AID 434951)
Details: U2OS GFP-HIF1alpha nuclear intensity, high-content imaging

Work on `O=C(NCC1CCCO1)c1cc(-c2ccccc2)on1` (centres undefined) yielded a pEC50 of 5.17.

`CCSc1cc(C)nc2c(-c3ccccc3)cnn12` was tested, and the EC50 was > 35 µM (inactive).

In the case of `CCn1c(SCC(=O)c2cc(C)ccc2C)nc2cc(S(=O)(=O)N3CCOCC3)ccc21`, the EC50 was > 35 µM (inactive).

In the case of `COc1ccc(OC)c2sc(N3CCN(C(=O)c4ccc5ncsc5c4)CC3)nc12`, the EC50 was > 35 µM (inactive).

With `COc1cccc(C2C3=C(N=c4s/c(=C\c5ccccc5O)c(=O)n42)c2ccccc2CC3)c1OC` (centres undefined) the EC50 was > 35 µM (inactive).

For `COC(=O)/C(=C(/F)SCC(C)=O)C(F)(F)F`, the EC50 was > 35 µM (inactive).

`Cc1ccc(S(=O)(=O)Nc2cc(-c3ccc(Cl)cc3)nn2C)cc1` was tested, and the EC50 was > 35 µM (inactive).

`CSc1ccc(/C=N/Nc2ccc(Cl)c(C(=O)O)c2)cc1` was tested, and the EC50 was > 35 µM (inactive).

`Cc1ccc2c(c1)C1NC(=S)NC(C)(O2)C1C(=O)Nc1ccc(Cl)cc1` (centres undefined) was tested, and the EC50 was > 35 µM (inactive).

With `CCOc1ccc(N2C(=O)CC(Sc3nc(C)cc(C)n3)C2=O)cc1` (centres undefined) the EC50 was > 35 µM (inactive).

`CCOc1ccc(/C=C/C(=O)c2ccccc2)cc1OC` gave a pEC50 of 4.71.

With `CCOc1ccc(-c2c(C(=O)N/N=C/c3cccnc3)nnn2-c2nonc2N)cc1` the EC50 was > 35 µM (inactive).

`O=C(c1cccc(C(F)(F)F)c1)C1CCCN(C(=O)Cn2cncn2)C1` (centres undefined) was tested, and the EC50 was > 35 µM (inactive).

In the case of `CC(C)NC(=S)NN=C1c2ccccc2-c2ccccc21`, the EC50 was > 35 µM (inactive).

With `O=S(=O)(/C=C/c1ccccc1)N1CCNCC1` the EC50 was > 35 µM (inactive).

With `Cc1cc(/C=N/N2CCN(C)CC2)c(C)n1-c1ccc(Cl)cc1` the EC50 was > 35 µM (inactive).

`Cn1ncc(Br)c1C(=O)OCC(=O)Nc1nc(-c2ccccc2)cs1` was tested, and the EC50 was > 35 µM (inactive).

For `O=C(c1cc2ccccc2o1)N1CCN(Cc2ccc3c(c2)OCO3)CC1`, the EC50 was > 35 µM (inactive).

For `O=c1c2ccccc2nc2c3ccccc3c(NCCN3CCOCC3)nn12`, the EC50 was > 35 µM (inactive).

`O=C(CSC1=NNC(c2ccccn2)S1)Nc1ccc(C(F)(F)F)cc1` (centres undefined) was tested, and the pEC50 was 4.98.

With `Cc1ccc(NC(=O)Nc2cccc(F)c2)nc1` the EC50 was > 35 µM (inactive).

With `C=CCN1C(=O)c2ccccc2Sc2ccc(C(=O)N3CCN(C)CC3)cc21` the EC50 was > 35 µM (inactive).

For `COc1ccccc1-c1cc(C(F)(F)F)nc(S(=O)(=O)CCCC(=O)NC(C)C)n1`, the EC50 was > 35 µM (inactive).

`Cc1ccc(Cl)cc1N1CCN(CC(O)COCc2ccco2)CC1` (centres undefined) was tested, and the EC50 was > 35 µM (inactive).

With `Oc1ccc(Br)cc1/C=N/Nc1ccccn1` the pEC50 was 5.15.

In the case of `O=Cc1cc(N=Nc2ccccc2Cl)ccc1O`, the EC50 was > 35 µM (inactive).

For `O=C(Cn1ncc2c3ccccc3n(Cc3ccccc3F)c2c1=O)NCCN1CCOCC1`, the EC50 was > 35 µM (inactive).

For `CCc1cc(C(=O)N/N=C/c2ccc(O)cc2O)c2ccccc2n1`, the pEC50 was 4.76.

For `COc1ccc(/C=N/Nc2ncnc3sc4c(c23)CCCC4)cc1OC`, the EC50 was > 35 µM (inactive).

In the case of `O=C(NCc1ccco1)c1cc(-c2cccs2)on1`, the pEC50 was 4.46.

With `CCc1nc(SCC(=O)c2ccccc2)c2ccccc2n1` the EC50 was > 35 µM (inactive).

`Cc1cccc(NC(=O)C2CC(=O)NC(Nc3nc4ccccc4s3)=N2)c1` (centres undefined) was tested, and the EC50 was > 35 µM (inactive).

With `COc1ccccc1N1CCN(CCCNC(=O)C2CCCN(c3ncnc4c3nc3n4CCCCC3)C2)CC1` (centres undefined) the EC50 was > 35 µM (inactive).

In the case of `COc1ccc(C(=O)N2CCCCCC2)cc1S(=O)(=O)N1CCOCC1`, the EC50 was > 35 µM (inactive).

With `CCN1CCN(c2ncnc3ccc(Br)cc23)CC1` the EC50 was > 35 µM (inactive).

`Cc1cccc(N2CCN(c3ccc(N4C(=O)CCCC4=O)cc3[N+](=O)[O-])CC2C)c1` (centres undefined) was tested, and the EC50 was > 35 µM (inactive).

For `COc1cccc(-c2cc(C(F)(F)F)n3nc(C(=O)N4CCC5(CC4)OCCO5)cc3n2)c1`, the EC50 was > 35 µM (inactive).

For `COc1cc(SC)ccc1C(=O)Nc1ccc(C)cc1C`, the EC50 was > 35 µM (inactive).

`O=C(N/N=C/c1cc2cc3c(cc2nc1Cl)OCO3)c1ccncc1` was tested, and the EC50 was > 35 µM (inactive).

`CCOC(=O)c1[nH]cnc1N=Nc1c(O)ccc2ccccc12` was tested, and the pEC50 was 5.66.

In the case of `CCOC(=O)CCS(=O)(=O)c1nc(-c2ccccc2)cc(C(F)(F)F)n1`, the EC50 was > 35 µM (inactive).

`Cc1cc(NC(=O)CCN2C(=O)/C(=C\c3ccccc3)SC2=S)no1` gave a pEC50 of 4.46.

For `CS(=O)(=O)c1ccc2nc(NC(=O)C3CC(=O)N(c4ccc(F)cc4)C3)sc2c1` (centres undefined), the EC50 was > 35 µM (inactive).

In the case of `COc1ccc(/C(C)=N/NC(=O)c2cccc(S(=O)(=O)N3CCCC3)c2)c(O)c1`, the pEC50 was 5.24.

In the case of `O=S(=O)(CCSc1nc2ccccc2s1)c1nc2ccccc2s1`, the EC50 was > 35 µM (inactive).

With `CC[n+]1c(S(=O)(=O)[O-])ccc2ccc(C)cc21` the EC50 was > 35 µM (inactive).

In the case of `C=CCc1c(C)nc2c(-c3ccccc3)cnn2c1N1CCOCC1`, the EC50 was > 35 µM (inactive).

`COc1cc(C(=O)Oc2ccccc2/C=N/NC(=O)c2ccc(Cl)cc2)cc(OC)c1OC` was tested, and the pEC50 was 4.45.

`Cc1ccccc1OCC(=O)Nc1ccc(N2CCN(C)CC2)c(Cl)c1` was tested, and the EC50 was > 35 µM (inactive).

In the case of `CCOc1ccc(C(=O)NC(=S)Nc2cccc(NC(=O)c3ccco3)c2)cc1[N+](=O)[O-]`, the EC50 was > 35 µM (inactive).

In the case of `CCOC(=O)c1c(-c2ccccc2)oc2ccc(OCC(O)CN(C)C)cc12` (centres undefined), the pEC50 was 4.47.

For `Cc1ccsc1C(=O)N/N=C/c1ccc([N+](=O)[O-])cc1`, the EC50 was > 35 µM (inactive).

`O=C(C[n+]1ccn(CCCNP2(=O)C=C(c3ccccc3)OC(c3ccccc3)=C2)c1)c1cccs1` was tested, and the EC50 was > 35 µM (inactive).

With `O=C(N/N=C/c1cc(Cl)cc(Cl)c1O)c1ccncc1` the EC50 was > 35 µM (inactive).

For `Oc1c(CN2CCN(c3ccc(F)cc3)CC2)cc(Cl)c2cccnc12`, the pEC50 was 5.22.

For `C=CCSc1cc(C)nc2c(-c3ccccc3)cnn12`, the EC50 was > 35 µM (inactive).

Work on `COc1ccc(O)c(/C=N/NC(=O)c2ccc(OCc3cccc(Br)c3)cc2)c1` yielded a pEC50 of 5.24.

Compound `Cc1ccn2c(Nc3ccccc3C)c(-c3ccccn3)nc2c1` has a pEC50 of 5.18.

With `COc1cccc(/C=N/Nc2ncnc3c2ncn3Cc2ccccc2)c1O` the pEC50 was 5.22.

`CCCC(=O)NC(c1ccc(Cl)cc1Cl)c1ccc2cccnc2c1O` (centres undefined) gave a pEC50 of 5.63.

For `Cc1cc(C)n(-c2ccc3cccc(NS(C)(=O)=O)c3n2)n1`, the pEC50 was 5.25.

`O=C(Nc1ncc2c(n1)CC(c1ccco1)CC2=O)c1ccccc1` (centres undefined) was tested, and the EC50 was > 35 µM (inactive).

Work on `COc1cccc(C(NC(C)=O)c2ccc3cccnc3c2O)c1` (centres undefined) yielded a pEC50 of 5.23.

`CCc1cc2c(=O)[nH]c(-c3ccccn3)nc2s1` showed a pEC50 of 5.32.

For `CN1CCN(C2Cc3ccc(F)cc3Sc3cc(F)c(Cl)cc32)CC1` (centres undefined), the EC50 was > 35 µM (inactive).

`O=C(NC1CCCC1)c1cc(-c2cccs2)on1` was tested, and the pEC50 was 5.14.

`O=C1C(=O)c2ccccc2C(O)=C1c1cccc([N+](=O)[O-])c1` was tested, and the EC50 was > 35 µM (inactive).

With `COc1ccc(C(=O)NCCCOC(=O)c2ccc(OC)cc2)cc1` the EC50 was > 35 µM (inactive).

For `O=C(CSCC(=O)Nc1ccccc1)N/N=C/c1c(O)ccc2ccccc12`, the pEC50 was 5.35.

For `COc1cc(SC)ccc1C(=O)NCCc1ccccc1`, the EC50 was > 35 µM (inactive).

Compound `O=C(CSC1c2ccccc2-c2ccccc21)N/N=C/c1ccccc1O` has a pEC50 of 5.19.

With `CCOC(=O)C(NC(C)=O)(N1CCOCC1)C(F)(F)F` (centres undefined) the EC50 was > 35 µM (inactive).

In the case of `Cc1c(Cl)c([N+](=O)[O-])nn1CC(=O)NC12CC3CC(CC(C3)C1)C2`, the EC50 was > 35 µM (inactive).

In the case of `COc1ccccc1-c1cc(C(F)(F)F)nc(S(=O)(=O)CCCC(=O)N2CCOCC2)n1`, the EC50 was > 35 µM (inactive).

For `COc1cccc(C(=O)SC2=NCCS2)c1`, the EC50 was > 35 µM (inactive).

For `COc1ccccc1/C=C/C(=O)c1ccccc1`, the EC50 was > 35 µM (inactive).

With `O=C1CCCC2=C1C(Cc1ccccc1)C1=C(CCCC1=O)O2` the EC50 was > 35 µM (inactive).

For `O=C(CCCOc1ccc(Cl)cc1Cl)N/N=C/c1ccccc1O`, the pEC50 was 5.13.

`Cc1nnc(-c2ccccc2)c(=O)n1/N=C/c1c(O)ccc2ccccc12` gave a pEC50 of 5.08.

With `C1CC1Cc1noc(CN2CCN(CC3CC3)CC2)n1` the EC50 was > 35 µM (inactive).

Compound `Oc1ccccc1N=Nc1ccccc1O` has a pEC50 of 5.70.

In the case of `O=C1CCCc2ccccc2N1Cc1ccc(F)cc1`, the EC50 was > 35 µM (inactive).

`Cn1nnc(NC(=O)c2cccc([N+](=O)[O-])c2)n1` was tested, and the EC50 was > 35 µM (inactive).

`Cc1ccc(OC(C)C(=O)N2CC(=O)Nc3ccccc32)cc1` (centres undefined) was tested, and the EC50 was > 35 µM (inactive).

For `COc1ccccc1NC(=O)C1CCN(C(=O)c2ccc(C(C)(C)C)cc2)CC1`, the EC50 was > 35 µM (inactive).

In the case of `CC[C@@]1(O)C(=O)OCc2c1cc1n(c2=O)Cc2cc3c(N)cccc3nc2-1`, the EC50 was > 35 µM (inactive).

For `CCCNC(=O)c1cc2nc(-c3ccccc3)cc(C(F)(F)F)n2n1`, the EC50 was > 35 µM (inactive).

`Cc1ccc(N(C)S(=O)(=O)c2ccc(-c3cc(C)no3)s2)cc1` was tested, and the EC50 was > 35 µM (inactive).

`CCOc1ccc2c(c1)c1nnc(SCC3CCCO3)nc1n2C` (centres undefined) was tested, and the EC50 was > 35 µM (inactive).

With `CC(=O)Nc1ccc(Nc2nc(C)c([N+](=O)[O-])c(Nc3ccc(NC(C)=O)cc3)n2)cc1` the EC50 was > 35 µM (inactive).

In the case of `COC(=O)c1ccc(-n2cncn2)c([N+](=O)[O-])c1`, the EC50 was > 35 µM (inactive).

Work on `Cc1cc(NC(c2cccnc2)c2ccc3cccnc3c2O)no1` (centres undefined) yielded a pEC50 of 4.63.

In the case of `CC(OC(=O)COc1ccc(Nc2ccccc2)cc1)C(=O)N(C)c1ccccc1` (centres undefined), the EC50 was > 35 µM (inactive).

With `Cc1ccc2[nH]c3c(=O)n(CC(=O)NCCCN(C)Cc4ccccc4)ncc3c2c1` the EC50 was > 35 µM (inactive).

`Cc1cc(SCC(=O)N/N=C/c2ccc(O)c(O)c2O)c(C)cc1Br` was tested, and the EC50 was > 35 µM (inactive).

`CC(NC(=O)c1cc2c(s1)CS(=O)(=O)C2)c1ccccc1` (centres undefined) was tested, and the EC50 was > 35 µM (inactive).

Compound `C/C(=N\NC(=O)Cc1ccc(Cl)cc1)c1ccccn1` has a pEC50 of 5.23.

`O=C(CSc1ccc(-c2ccccn2)nn1)Nc1nccs1` was tested, and the pEC50 was 4.98.

For `Cc1cc(C)cc(NC(=O)c2cccc(NC(=O)c3ccco3)c2)c1`, the EC50 was > 35 µM (inactive).

Compound `COc1cccc(C(=O)N/N=C(/c2ccccc2)c2ccccn2)c1` has a pEC50 of 5.22.

For `Cc1onc(-c2c(Cl)cccc2Cl)c1C(=O)N=C(N)N1CCCC1`, the EC50 was > 35 µM (inactive).

In the case of `O=c1oc2cc([N+](=O)[O-])ccc2nc1/C=C(\O)c1cccc(Br)c1`, the EC50 was > 35 µM (inactive).

`CCC(Cc1ccccc1)n1c(=S)[nH]c2ccccc2c1=O` (centres undefined) was tested, and the EC50 was > 35 µM (inactive).

With `Cc1ccc(-n2nc3c(=O)n(CC(=O)NCc4ccccc4)nc(C)c3c2C)cc1` the EC50 was > 35 µM (inactive).
